Results on 41 compounds are retold here after patent US10815238B2, “Antimicrobial compounds and methods of making and using the same” (BIOVERSYS AG, priority 2013, dated 2020).

Test [1] relates to Staphylococcus aureus (S. aureus) 11540 strain. In words: Standard microdilution assay, MIC against S. aureus 11540. The class given is cell-based. As to conditions: S. aureus 11540 strain, standard microdilution assay, cutoff 16 micrograms/mL, read-out: MIC S. aureus. The protocol:
The in vitro activity of the compounds of the present invention can be determined. Antimicrobial testing is typically performed to determine the minimum inhibitory concentration (MIC). Minimum inhibitory concentrations (MICs) are determined by the microdilution method in a final volume of 100 μl according to protocols outlined by The Clinical and Laboratory Standards Institute (CLSI). Performance standards for reference strains are assessed within the same experimental design to maintain quality control. See, for example, Clinical Laboratory Standards Institute: Methods for dilution antimicrobial susceptibility tests for bacteria that grow aerobically M7-A8. Approved Standard-Eighth Edition. Wayne, Pa.: CLSI; December 2008; and Clinical Laboratory Standards Institute: Performance Standards for Antimicrobial Susceptibility Testing M100-S20; Approved Standard-Twentieth Edition. Wayne, Pa.: CLSI; June 2010.
The compounds of the present invention were tested for antimicrobial activity. The Compounds 1-582 were run against Eschericia coli (E. coli) strain ATCC25922 and Compounds 320-582 were run against Staphylococcus aureus (S. aureus) 11540 strain using a standard microdilution assay to determine minimum inhibitory concentrations (MICs). […] It will be recognized by one skilled in the art that the compounds can be assessed against other bacterial organisms and that the presentation of data for activity against Eschericia coli and Staphylococcus aureus are illustrative and in no way is intended to limit the scope of the present invention. The compounds of the present invention can be assayed against a range of other microorganisms depending upon the performance activity desired to be gathered. Furthermore, the “+” and “−” representation and the selection of a cutoff value of 16 micrograms/mL is also illustrative and in no way is intended to limit the scope of the present invention.

The subject of test [2] is Eschericia coli (E. coli) strain ATCC25922. Put plainly: Standard microdilution assay, MIC against E. coli ATCC25922. The class given is cell-based. As to conditions: Escherichia coli; E. coli strain ATCC25922, standard microdilution assay; cutoff 16 micrograms/mL; read-out: MIC E. Coli. Summed up: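 Scoring as + or − used a 16 micrograms/mL cutoff on minimum inhibitory concentrations. These came from CLSI-standard microdilution, quality-controlled with reference strains tested in the same run.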

Structures are written as SMILES.

`C[C@H](N)CCCc1cc(OC(F)(F)F)c(F)c(-c2cc3cn(-c4ccc([C@@H](N)CCCNC(=N)N)cc4)c(=O)nc3[nH]2)c1` [Compound 413]: the MIC in test [1] and in test [2] was less than 16 µg/mL each time.
As for `C[C@H](CCNC(=N)N)NCc1ccc(-n2cc3cc(-c4cc(CCC[C@@H](N)CO)cc(Cl)c4F)[nH]c3nc2=O)cc1` [Compound 450], the MIC in test [1] and in test [2] was less than 16 µg/mL each time.
On to `C[C@H](N)CCCc1cc(Cl)c(F)c(-c2cc3cn(-c4ccc([C@@H]5CCO[C@@H](CCN)C5)cc4)c(=O)nc3[nH]2)c1` [Compound 525], for which the minimal inhibitory concentration (MIC) in test [1] and in test [2] was less than 16 µg/mL throughout.
Consider `C[C@H](N)CCCc1cc(Cl)c(F)c(-c2cc3cn(-c4ccc([C@H](N)CCCN)cc4)c(=O)nc3[nH]2)c1` [Compound 454], for which the MIC in test [1] and in test [2] was less than 16 µg/mL each time.
As for `CN/C(=C/[N+](=O)[O-])NCC[C@@H]1CCC[C@@H](c2ccc(-n3cc4cc(-c5cc(CCC[C@H](C)N)cc(Cl)c5F)[nH]c4nc3=O)cc2)N1` [Compound 517], the MIC in test [1] and in test [2] was less than 16 µg/mL throughout.
`C[C@H](N)CCCc1cc(OC(F)(F)F)c(F)c(-c2cc3cn(-c4ccc(CN[C@H](C)C[C@@H](CN)NC(=N)N)cc4)c(=O)nc3[nH]2)c1` [Compound 402]: the minimal inhibitory concentration (MIC) in test [1] and in test [2] was less than 16 µg/mL each time.
As for `C[C@H](N)CCCc1cc(Cl)c(F)c(-c2cc3cn(-c4ccc(CN[C@H](CCNC(=N)N)CCc5nccs5)cc4)c(=O)nc3[nH]2)c1` [Compound 528], the minimum inhibitory concentration (MIC) in test [1] and in test [2] was less than 16 µg/mL throughout.
For `C[C@H](N)CCCc1cc(Cl)c(F)c(-c2cc3cn(-c4ccc(CN[C@@H](C)C[C@@H](CCO)NC(=N)N)cc4)c(=O)nc3[nH]2)c1` [Compound 359], the minimum inhibitory concentration (MIC) in test [1] and in test [2] was less than 16 µg/mL throughout.
For the compound `C[C@H](N)CCCc1cc(Cl)c(F)c(-c2cc3cn(-c4ccc([C@@H]5COC[C@@H](CCNC(=N)N)N5)cc4)c(=O)nc3[nH]2)c1` [Compound 353], the minimal inhibitory concentration (MIC) in test [1] and in test [2] was less than 16 µg/mL each time.
Take `COC[C@@H](CCNC(=N)N)NCc1ccc(-n2cc3cc(-c4cc(CCC[C@@H](N)CO)cc(Cl)c4F)[nH]c3nc2=O)cc1` [Compound 378]: the minimum inhibitory concentration (MIC) in test [1] and in test [2] was less than 16 µg/mL each time.
Consider `C[C@H](N)CCCc1cc(Cl)c(F)c(-c2cc3cn(-c4ccc(C(=N)NCCCNC(=N)N)cc4)c(=O)nc3[nH]2)c1` [Compound 477], for which the minimal inhibitory concentration (MIC) in test [1] and in test [2] was less than 16 µg/mL throughout.
As to `C=C[C@H](C[C@@H](C)NCc1ccc(-n2cc3cc(-c4cc(CCC[C@H](C)N)cc(Cl)c4F)[nH]c3nc2=O)cc1)NC(=N)N` [Compound 371], the MIC in test [1] and in test [2] was less than 16 µg/mL in each case.
Consider `C[C@H](N)CCCc1cc(Cl)c(F)c(-c2cc3cn(-c4ccc([C@@H]5CCC[C@H]6CCN=CN65)cc4)c(=O)nc3[nH]2)c1` [Compound 567], for which the minimum inhibitory concentration (MIC) is less than 16 µg/mL in test [1] and more than 16 µg/mL in test [2].
On to `C[C@H](N)CCCc1cc(Cl)c(F)c(-c2cc3cn(-c4ccc([C@H]5CCO[C@H](CNC(=N)N)C5)cc4)c(=O)nc3[nH]2)c1` [Compound 561], for which the minimal inhibitory concentration (MIC) in test [1] and in test [2] was less than 16 µg/mL each time.
Regarding `C[C@H](N)CCCc1cc(Cl)c(F)c(-c2cc3cn(-c4ccc([C@@H]5CCC[C@@H](CNCC6CCCC6)N5)cc4)c(=O)nc3[nH]2)c1` [Compound 559], the MIC in test [1] and in test [2] was less than 16 µg/mL throughout.
In the case of `C[C@H](N)CCCc1cccc(-c2cc3cn(-c4ccc(CNCCCNC(=N)N)cc4)c(=O)nc3[nH]2)c1` [Compound 520], the MIC in test [1] and in test [2] was less than 16 µg/mL throughout.
On to `C[C@H](N)CCCc1cc(Cl)c(F)c(-c2cc3cn(-c4ccc(CN5CC[C@H](CN)NC5=N)cc4)c(=O)nc3[nH]2)c1` [Compound 417], for which the minimum inhibitory concentration (MIC) in test [1] and in test [2] was less than 16 µg/mL throughout.
For `C=C[C@H](C[C@H](C)NCc1ccc(-n2cc3cc(-c4cc(CCC[C@H](C)N)cc(Cl)c4F)[nH]c3nc2=O)cc1)NC(=N)N` [Compound 338], the MIC in test [1] and in test [2] was less than 16 µg/mL each time.
In the case of `C[C@H](N)CCCc1cc(Cl)c(F)c(-c2cc3cn(-c4ccc(CN[C@H](CCNC(=N)N)CNc5ncc[nH]5)cc4)c(=O)nc3[nH]2)c1` [Compound 536], the MIC in test [1] and in test [2] was less than 16 µg/mL in each case.
`C[C@H](N)CCCc1cc(Cl)c(F)c(-c2cc3cn(-c4ccc([C@@H]5CCO[C@@H](CCNC(=N)N)C5)cc4)c(=O)nc3[nH]2)c1` [Compound 526]: the MIC in test [1] and in test [2] was less than 16 µg/mL throughout.
Turning to `C[C@H](N)CCCc1cc(Cl)c(F)c(-c2cc3cn(-c4ccc([C@@H]5CCC[C@@H](CCCN)N5)cc4)c(=O)nc3[nH]2)c1` [Compound 557], the MIC in test [1] and in test [2] was less than 16 µg/mL each time.
Regarding `C[C@H](N)CCCc1cc(Cl)c(F)c(-c2cc3cn(-c4ccc([C@@H]5CCC[C@@H](Cc6nn[nH]n6)N5)cc4)c(=O)nc3[nH]2)c1` [Compound 509], the MIC in test [1] and in test [2] was more than 16 µg/mL each time.
Take `C[C@H](N)CCCc1cc(OC(F)(F)F)c(F)c(-c2cc3cn(-c4ccc(CN[C@H](C)C[C@H](CCO)NC(=N)N)cc4)c(=O)nc3[nH]2)c1` [Compound 396]: the minimum inhibitory concentration (MIC) in test [1] and in test [2] was less than 16 µg/mL each time.
As to `C[C@H](N)CCCc1cc(Cl)c(F)c(-c2cc3cn(-c4ccc([C@H]5COC[C@@H](CNC(=N)N)N5)cc4)c(=O)nc3[nH]2)c1` [Compound 451], the MIC in test [1] and in test [2] was less than 16 µg/mL each time.
In the case of `Cc1nnc(NC[C@@H](CCNC(=N)N)NCc2ccc(-n3cc4cc(-c5cc(CCC[C@H](C)N)cc(Cl)c5F)[nH]c4nc3=O)cc2)s1` [Compound 560], the minimum inhibitory concentration (MIC) in test [1] and in test [2] was less than 16 µg/mL each time.
For `C[C@H](N)CCN1CCC(c2cc3cn(-c4ccc([C@@H]5CCC[C@@H](CCNC(=N)N)N5)cc4)c(=O)nc3[nH]2)C1` (stereo partly shown) [Compound 579], the MIC in test [1] and in test [2] was less than 16 µg/mL each time.
As for `C[C@H](NCCCNC(=N)N)c1ccc(-n2cc3cc(-c4cc(SC(F)(F)F)cc([C@H](O)CC[C@@H](N)CCO)c4)[nH]c3nc2=O)cc1` [Compound 133], the MIC in test [2] is less than 16 µg/mL.
On the same count and under the same terms, next, `C=CC[C@@H](CCNCc1ccc(-n2cc3cc(-c4cc(CCC[C@H](C)N)cc(Cl)c4F)[nH]c3nc2=O)cc1)NC(=N)N` [Compound 202]: less than 16 µg/mL.
As for `C[C@H](N)CCCc1cc(Cl)c(F)c(-c2cc3cn(-c4ccc(CN[C@@H](CO)CCNC(=N)N)cc4)c(=O)nc3[nH]2)c1` [Compound 273], the MIC in test [2] is less than 16 µg/mL.
Consider `COc1ccc([C@H](NCCCNC(=N)N)c2ccc(-n3cc4cc(-c5cc(CCC[C@H](C)N)cc(C(F)(F)F)c5)[nH]c4nc3=O)cc2)cc1` [Compound 17], for which, in test [2], the MIC was less than 16 µg/mL.
On the same count and under the same terms, next, `C[C@H](N)CCCc1cc(-c2cc3cn(-c4ccc([C@H](CCCO)NCCCNC(=N)N)cc4)c(=O)nc3[nH]2)cc(C(F)(F)F)c1` [Compound 101]: less than 16 µg/mL; `C[C@H](NCCCNC(=N)N)c1ccc(-n2cc3cc(-c4cc([C@H](O)CC[C@@H](C)N)cc(C(F)(F)F)c4)[nH]c3nc2=O)cc1` [Compound 20]: less than 16 µg/mL.
Consider `C[C@H](N)CCCc1cc(OC(F)(F)F)c(F)c(-c2cc3cn(-c4ccc([C@H](C)NCC[C@@H](CCO)NC(=N)N)cc4)c(=O)nc3[nH]2)c1` [Compound 248], for which the MIC in test [2] is less than 16 µg/mL.
On the same count and under the same terms, next, `Cc1cc(F)c(-c2cc3cn(-c4ccc([C@H](C)NCCCNC(=N)N)cc4)c(=O)nc3[nH]2)cc1CCC[C@H](C)N` [Compound 33]: less than 16 µg/mL; `O=c1nc2[nH]ccc2cn1-c1ccc(CNCc2c[nH]nn2)cc1` [Compound 129]: more than 16 µg/mL.
On the same count and under the same terms, next, `C[C@H](N)CCCc1cc(Cl)c(F)c(-c2cc3cn(-c4ccc([C@H](C)NCC[C@H](CCC#N)NC(=N)N)cc4)c(=O)nc3[nH]2)c1` [Compound 314]: less than 16 µg/mL; `C[C@H](N)CCCc1cc(OC(F)(F)F)c(F)c(-c2cc3cn(-c4ccc([C@H](C)NCC[C@@H](CN)NC(=N)N)cc4)c(=O)nc3[nH]2)c1` [Compound 278]: less than 16 µg/mL; `C[C@H](N)CCCc1cc(Cl)c(F)c(-c2cc3cn(-c4ccc([C@H](N)C(=O)NCCNC(=N)N)cc4)c(=O)nc3[nH]2)c1` [Compound 253]: less than 16 µg/mL.
As to `C[C@H](N)CCCc1cc(OC(F)(F)F)c(F)c(-c2cc3cn(-c4ccc([C@H](C)NCC[C@H](CCCO)NC(=N)N)cc4)c(=O)nc3[nH]2)c1` [Compound 276], the MIC in test [2] is less than 16 µg/mL.
On the same count and under the same terms, as for `C=CC[C@@H](CCN[C@@H](C)c1ccc(-n2cc3cc(-c4cc(CCC[C@H](C)N)cc(Cl)c4F)[nH]c3nc2=O)cc1)NC(=N)N` [Compound 252], the figure is less than 16 µg/mL; as for `C[C@H](N)CCCc1cc(Cl)c(F)c(-c2cc3cn(-c4ccc([C@H](C)N[C@@H](CCO)CCNC(=N)N)cc4)c(=O)nc3[nH]2)c1` [Compound 303], less than 16 µg/mL.

Broadly, the MIC is the least concentration at which growth counts as inhibited.
